Data as given in ChEMBL document CHEMBL4813993, “Design and synthesis of diosgenin derivatives as apoptosis inducers through mitochondria-related pathways” (Eur J Med Chem, 2021).
Activity calls are given as the source filed them. The rule behind the calls is not given here.

Key:
K562 [1] = assay: Induction of apoptosis in human K562 cells assessed as increase in cleaved PARP protein expression at 3 to 12 uM after 48 hrs by Western blot analysis; format: functional, cell-based; conditions: dose 3-12 µM
K562 [2] = assay: Induction of mitochondrial membrane potential loss in human K562 cells assessed as cell population with mitochondrial membrane potential collapse at 3 uM after 48 hrs by JC1 dye-based flow cytometry analysis (reference value: 2.75%); format: functional
K562 [3] = assay: Induction of apoptosis in human K562 cells assessed as decrease in cell density at 3 to 12 uM incubated for 48 hrs by light microscopic analysis; format: functional, cell-based; conditions: dose 3-12 µM
K562 [4] = assay: Induction of apoptosis in human K562 cells assessed as late apoptotic cells at 12 uM incubated for 48 hrs by annexin V-FITC/PI staining based flow cytometry (reference value: 0.11 %); format: functional
K562 [5] = assay: Induction of mitochondrial membrane potential loss in human K562 cells assessed as cell population with intact mitochondrial membrane potential at 6 uM after 48 hrs by JC1 dye-based flow cytometry analysis (reference value: 96.48%); format: functional
A549 [6] = assay: Cytotoxicity against human A549 cells assessed as inhibition of cell growth incubated for 48 hrs by CCK-8 assay; format: functional, cell-based; conditions: A549, 48 h
K562 [7] = assay: Induction of apoptosis in human K562 cells assessed as increase in cytochrome c protein expression after 48 hrs by Western blot analysis; format: functional, cell-based; conditions: dose 3-12 µM
A549 [8] = assay: Potency index, ratio of diosgenin IC50 to test compound IC50 for cytotoxicity against human A549 cells assessed as inhibition of cell growth incubated for 48 hrs by CCK-8 assay; format: functional
K562 [9] = assay: Induction of apoptosis in human K562 cells assessed as increase in number of broken cells at 3 to 12 uM incubated for 48 hrs by light microscopic analysis; format: functional, cell-based; conditions: dose 3-12 µM
K562 [10] = assay: Induction of apoptosis in human K562 cells assessed as increase in cleaved caspase 9 protein expression at 3 to 12 uM after 48 hrs by Western blot analysis; format: functional, cell-based; conditions: dose 3-12 µM
K562 [11] = assay: Induction of apoptosis in human K562 cells assessed as increase in cleaved caspase 9 gene expression at 3 to 12 uM after 48 hrs by SYBR green dye-based qRT-PCR analysis; format: functional, cell-based; conditions: dose 3-12 µM
K562 [12] = assay: Induction of apoptosis in human K562 cells assessed as increase in cleaved caspase 3 protein expression at 3 to 12 uM after 48 hrs by Western blot analysis; format: functional, cell-based; conditions: dose 3-12 µM
K562 [13] = assay: Induction of apoptosis in human K562 cells assessed as increase in cleaved PARP gene expression at 3 to 12 uM after 48 hrs by SYBR green dye-based qRT-PCR analysis; format: functional, cell-based; conditions: dose 3-12 µM
K562 [14] = assay: Induction of apoptosis in human K562 cells assessed as decrease in cell density at 3 to 12 uM incubated for 48 hrs by Hoechst 33342/PI staining based fluorescence microscopic analysis; format: functional; conditions: dose 3-12 µM
K562 [15] = assay: Cytotoxicity against human K562 cells assessed as inhibition of cell growth incubated for 48 hrs by CCK-8 assay; format: functional, cell-based; conditions: K562, 48 h
K562 [16] = assay: Induction of apoptosis in human K562 cells assessed as increase in Bax protein expression at 3 to 12 uM after 48 hrs by Western blot analysis; format: functional, cell-based; conditions: dose 3-12 µM
K562 [17] = assay: Induction of apoptosis in human K562 cells assessed as decrease in Bcl-2 gene expression after 48 hrs by SYBR green dye-based qRT-PCR analysis; format: functional, cell-based; conditions: dose 3-12 µM
K562 [18] = assay: Induction of apoptosis in human K562 cells assessed as increase in Bax gene expression at 3 to 12 uM after 48 hrs by SYBR green dye-based qRT-PCR analysis; format: functional, cell-based; conditions: dose 3-12 µM
K562 [19] = assay: Potency index, ratio of 5-FU IC50 to test compound IC50 for cytotoxicity against human K562 cells assessed as inhibition of cell growth incubated for 48 hrs by CCK-8 assay; format: functional
K562 [20] = assay: Induction of mitochondrial membrane potential loss in human K562 cells assessed as cell population with mitochondrial membrane potential collapse at 6 uM after 48 hrs by JC1 dye-based flow cytometry analysis (reference value: 2.75%); format: functional
HepG2 = assay: Cytotoxicity against human HepG2 cells assessed as inhibition of cell growth incubated for 48 hrs by CCK-8 assay; format: functional, cell-based; conditions: HepG2, 48 h
K562 [21] = assay: Induction of apoptosis in human K562 cells assessed as chromatin condensation at 3 to 12 uM incubated for 48 hrs by Hoechst 33342/PI staining based fluorescence microscopic analysis; format: functional, cell-based; conditions: dose 3-12 µM
K562 [22] = assay: Induction of apoptosis in human K562 cells assessed as increase in cleaved caspase 3 gene expression at 3 to 12 uM after 48 hrs by SYBR green dye-based qRT-PCR analysis; format: functional, cell-based; conditions: dose 3-12 µM
K562 [23] = assay: Induction of mitochondrial membrane potential loss in human K562 cells assessed as cell population with mitochondrial membrane potential collapse at 12 uM after 48 hrs by JC1 dye-based flow cytometry analysis (reference value: 2.75%); format: functional
K562 [24] = assay: Induction of ROS generation in human K562 cells at 6 uM incubated for 48 hrs by DCFH-DA staining-based flow cytometry (reference value: 3.68 %); format: functional
K562 [25] = assay: Induction of apoptosis in human K562 cells assessed as early apoptotic cells at 3 uM incubated for 48 hrs by annexin V-FITC/PI staining based flow cytometry (reference value: 0.32 %); format: functional
K562 [26] = assay: Induction of apoptosis in human K562 cells assessed as nuclear fragmentation at 3 to 12 uM incubated for 48 hrs by Hoechst 33342/PI staining based fluorescence microscopic analysis; format: functional, cell-based; conditions: dose 3-12 µM
MCF7 = assay: Cytotoxicity against human MCF7 cells assessed as inhibition of cell growth incubated for 48 hrs by CCK-8 assay; format: functional, cell-based; conditions: MCF7, 48 h
K562 [27] = assay: Induction of ROS generation in human K562 cells at 12 uM incubated for 48 hrs by DCFH-DA staining-based flow cytometry (reference value: 3.68 %); format: functional
K562 [28] = assay: Induction of apoptosis in human K562 cells assessed as early apoptotic cells at 6 uM incubated for 48 hrs by annexin V-FITC/PI staining based flow cytometry (reference value: 0.32 %); format: functional
K562 [29] = assay: Induction of mitochondrial membrane potential loss in human K562 cells assessed as cell population with intact mitochondrial membrane potential at 12 uM after 48 hrs by JC1 dye-based flow cytometry analysis (reference value: 96.48%); format: functional
MKN-45 = assay: Cytotoxicity against human MNK45 cells assessed as inhibition of cell growth incubated for 48 hrs by CCK-8 assay; format: functional, cell-based; conditions: MKN-45, 48 h
K562 [30] = assay: Induction of apoptosis in human K562 cells assessed as late apoptotic cells at 3 uM incubated for 48 hrs by annexin V-FITC/PI staining based flow cytometry (reference value: 0.11 %); format: functional
K562 [31] = assay: Induction of ROS generation in human K562 cells at 3 uM incubated for 48 hrs by DCFH-DA staining-based flow cytometry (reference value: 3.68 %); format: functional
K562 [32] = assay: Potency index, ratio of diosgenin IC50 to test compound IC50 for cytotoxicity against human K562 cells assessed as inhibition of cell growth incubated for 48 hrs by CCK-8 assay; format: functional
K562 [33] = assay: Induction of mitochondrial membrane potential loss in human K562 cells assessed as cell population with intact mitochondrial membrane potential at 3 uM after 48 hrs by JC1 dye-based flow cytometry analysis (reference value: 96.48%); format: functional
K562 [34] = assay: Induction of apoptosis in human K562 cells assessed as late apoptotic cells at 6 uM incubated for 48 hrs by annexin V-FITC/PI staining based flow cytometry (reference value: 0.11 %); format: functional
K562 [35] = assay: Induction of apoptosis in human K562 cells assessed as early apoptotic cells at 12 uM incubated for 48 hrs by annexin V-FITC/PI staining based flow cytometry (reference value: 0.32 %); format: functional
K562 [36] = assay: Induction of apoptosis in human K562 cells assessed as decrease in Bcl-2 protein expression after 48 hrs by Western blot analysis; format: functional, cell-based; conditions: dose 3-12 µM
T-24 = assay: Cytotoxicity against human T24 cells assessed as inhibition of cell growth incubated for 48 hrs by CCK-8 assay; format: functional, cell-based; conditions: T-24, 48 h

CC(=O)O[C@H]1CC[C@@]2(C)C(=CC[C@H]3[C@@H]4C[C@@H]5O[C@H](CC[C@@H](C)COC(=O)[C@@H](N)Cc6c[nH]c7ccccc67)[C@@H](C)[C@@H]5[C@@]4(C)CC[C@@H]32)C1
Activity (K562 [1]): Active
Activity (K562 [2]): 8.78%
Activity (K562 [3]): Active
Activity (K562 [4]): 18.85%
Activity (K562 [5]): 75.88%
IC50 (A549 [6]): 7.82 µM
Activity (K562 [7]): Dose-Dependent Effect
Ratio IC50 (A549 [8]): 4.2
Activity (K562 [9]): Active
Activity (K562 [10]): Active
Activity (K562 [11]): Active
Activity (K562 [12]): Active
Activity (K562 [13]): Active
Activity (K562 [14]): Active
IC50 (K562 [15]): 4.41 µM
Activity (K562 [16]): Active
Activity (K562 [17]): Dose-Dependent Effect
Activity (K562 [18]): Active
Ratio IC50 (K562 [19]): 4.3
Activity (K562 [20]): 21.23%
IC50 (HepG2): 12.7 µM
Activity (K562 [21]): Active
Activity (K562 [22]): Active
Activity (K562 [23]): 67.81%
Activity (K562 [24]): 22.26%
Activity (K562 [25]): 4.78%
Activity (K562 [26]): Active
IC50 (MCF7): 11.3 µM
Activity (K562 [27]): 34.25%
Activity (K562 [28]): 11.42%
Activity (K562 [29]): 27.71%
IC50 (MKN-45): 16.2 µM
Activity (K562 [30]): 9.13%
Activity (K562 [31]): 16.85%
Ratio IC50 (K562 [32]): 6.8
Activity (K562 [33]): 90.01%
Activity (K562 [34]): 14.13%
Activity (K562 [35]): 21.45%
Activity (K562 [36]): Dose-Dependent Effect
IC50 (T-24): 6.34 µM
